According to ChEMBL document CHEMBL1926546, “New N-methylpiperazinyl derivatives of bicyclic antiprotozoal compounds” (Eur J Med Chem, 2012):
The source made the active and inactive calls. The calls are words filed in the database; no cut-off is given here.

Key:
[1] = system: Trypanosoma brucei rhodesiense; assay: Antitrypanosomal activity against Trypanosoma brucei rhodesiense STIB900 bloodstream forms after 72 hrs by serial dilution Alamar blue assay; type: functional, organism-based; details: STIB900, 72 h
[2] = Selectivity index, ratio of IC50 for rat L6 cells to IC50 for Trypanosoma brucei rhodesiense STIB900; type: toxicity, cell-based; details: L6 cells (versus Trypanosoma brucei rhodesiense STIB900), read-out: Ratio IC50
[3] = Selectivity index, ratio of IC50 for rat L6 cells to IC50 for chloroquine and pyrimethamine-resistant Plasmodium falciparum K1; type: toxicity, cell-based; details: L6 cells (versus Plasmodium falciparum K1), read-out: Ratio IC50
[4] = system: L6; assay: Cytotoxicity against rat L6 cells; type: cell-based
[5] = system: Plasmodium falciparum; assay: Antiplasmodial activity against chloroquine and pyrimethamine-resistant Plasmodium falciparum K1 assessed as [3H]hypoxanthine incorporation after 48 hrs by liquid scintillation counter; type: functional, organism-based
[6] = system: Plasmodium berghei; assay: Antimalarial activity against Plasmodium berghei ANKA infected in albino mouse assessed as inhibition of parasitemia at 30 to 50 mg/kg, ip administered as single dose post-infection measured after 24 hrs by Giemsa staining-based microscopy; type: functional; details: dose mg/kg 30-50; route intraperitoneal
[7] = system: Plasmodium berghei; assay: Antimalarial activity against Plasmodium berghei ANKA infected in albino mouse assessed as prolongation of survival time at 30 to 50 mg/kg, ip administered as single dose post infection (reference value: 6.7 days); type: functional; details: dose mg/kg 30-50; route intraperitoneal
[8] = system: Trypanosoma brucei brucei; assay: […] activity against Trypanosoma brucei brucei STIB 795 infected in NMRI mouse assessed as reduction in parasitemia compound administered on day 3 and day 6 post infection measured after 24 hrs; type: functional, organism-based
[9] = system: Trypanosoma brucei brucei; assay: […] activity against Trypanosoma brucei brucei STIB 795 infected in NMRI mouse assessed as reduction in parasitemia compound administered on day 3 and day 6 post infection measured on day 10; type: functional, organism-based

SMILES | IC50 [1] | selectivity ratio [2] | selectivity ratio [3] | IC50 [4] | IC50 [5] | inhibition (INH) [6] | MST [7] | Activity [8] | Activity [9]
c1ccc(C2CC3(N4CCCCC4)CCN(CCCN4CCCCC4)C2C(c2ccccc2)C3)cc1 (stereo not drawn) | 18400 nM | 7.5 |  |  |  |  |  |  | 
CCN(CC)CCC(=O)OC1CC2(N(C)C)CC(c3ccccc3)C1C(c1ccccc1)C2 (stereo not drawn) |  | 215 | 54.9 |  |  |  |  |  | 
CN1CCN(C23CCNC(C(c4ccccc4)C2)C(c2ccccc2)C3)CC1 (racemic) | 380 nM | 255 | 64.6 | 96900 nM | 1500 nM |  |  |  | 
CN1CCN(CCC(=O)N2CCC3(N4CCN(C)CC4)CC(c4ccccc4)C2C(c2ccccc2)C3)CC1 (racemic) | 3620 nM | 44.5 | 82.5 | 161000 nM | 1950 nM |  |  |  | 
CN1CCN(CCN2CCC3(N(C)C)CC(c4ccccc4)C2C(c2ccccc2)C3)CC1 (racemic) | 13500 nM | 5.19 | 135 | 70300 nM | 520 nM |  |  |  | 
CN1CCN(CCN2CCC3(N4CCCC4)CC(c4ccccc4)C2C(c2ccccc2)C3)CC1 (racemic) | 6350 nM | 7.93 | 2190 | 50300 nM | 23 nM | 39% | 8.3 days |  | 
CN1CCN(CCN2CCC3(N4CCCCC4)CC(c4ccccc4)C2C(c2ccccc2)C3)CC1 (racemic) | 43700 nM | 2.91 | 424 | 127000 nM | 300 nM |  |  |  | 
CN1CCN(CCCN2CCC3(N(C)C)CC(c4ccccc4)C2C(c2ccccc2)C3)CC1 (racemic) | 11500 nM | 4.74 | 107 | 54500 nM | 510 nM |  |  |  | 
CN1CCN(CCCN2CCC3(N4CCCC4)CC(c4ccccc4)C2C(c2ccccc2)C3)CC1 (racemic) | 6990 nM | 3.93 | 102 | 27400 nM | 270 nM | 39% | 7.7 days |  | 
CN1CCN(CCCN2CCC3(N4CCCCC4)CC(c4ccccc4)C2C(c2ccccc2)C3)CC1 (racemic) | 17600 nM | 3.55 | 568 | 62400 nM | 110 nM |  |  |  | 
CN1CCN(CCCN2CCC3(N4CCN(C)CC4)CC(c4ccccc4)C2C(c2ccccc2)C3)CC1 (racemic) | 6670 nM | 7.16 | 191 | 47800 nM | 250 nM |  |  |  | 
CN1CCN(CC(=O)NC2CC3(N4CCN(C)CC4)CC(c4ccccc4)C2C(c2ccccc2)C3)CC1 (racemic) | 2060 nM | 20.4 | 67.9 | 42100 nM | 620 nM |  |  |  | 
CN1CCN(CCC(=O)NC2CC3(N4CCN(C)CC4)CC(c4ccccc4)C2C(c2ccccc2)C3)CC1 (racemic) | 3300 nM | 20.6 | 123 | 67900 nM | 550 nM |  |  |  | 
CN1CCN(CCC(=O)OC2CC3(N(C)C)CC(c4ccccc4)C2C(c2ccccc2)C3)CC1 (racemic) | 210 nM | 148 | 67.7 | 31100 nM | 460 nM |  |  |  | 
CN1CCN(CCC(=O)OC2CC3(N4CCCC4)CC(c4ccccc4)C2C(c2ccccc2)C3)CC1 (racemic) | 450 nM | 47.4 | 82 | 21300 nM | 260 nM |  |  |  | 
CN1CCN(CCC(=O)OC2CC3(N4CCCCC4)CC(c4ccccc4)C2C(c2ccccc2)C3)CC1 (racemic) | 87 nM | 271 | 392 | 23500 nM | 60 nM |  |  | Active | Active
CN1CCN(CCCC(=O)OC2CC3(N(C)C)CC(c4ccccc4)C2C(c2ccccc2)C3)CC1 (racemic) | 80 nM | 248 | 82.7 | 19800 nM | 240 nM |  |  |  | 
CN1CCN(CCCC(=O)OC2CC3(N4CCCC4)CC(c4ccccc4)C2C(c2ccccc2)C3)CC1 (racemic) | 150 nM | 67.7 | 84.7 | 10200 nM | 120 nM |  |  |  | 
CN1CCN(CCCC(=O)OC2CC3(N4CCCCC4)CC(c4ccccc4)C2C(c2ccccc2)C3)CC1 (racemic) | 160 nM | 139 | 446 | 22300 nM | 50 nM |  |  |  | 
C[C@@H]1CC[C@H]2[C@@H](C)C(=O)O[C@@H]3O[C@@]4(C)CC[C@@H]1[C@]32OO4 [ARTEMISININ] |  |  |  |  | 6.4 nM |  |  |  | 
Nc1nc(N)nc(Nc2ccc([As]3SCC(CO)S3)cc2)n1 (stereo not drawn) [MELARSOPROL] | 9 nM | 1940 |  |  |  |  |  |  | 
